Six compounds from patent US20160108049A1 (TAKEDA Gmbh, priority 2011, published 2016) can be followed below.

One experiment has as its target T1, human PDE5 (Homo sapiens, UniProt O76074).
T1 construct: from tissue; host or cells: human platelets from fresh donor blood (platelet lysate)
Description: Inhibition of PDE5 activity (platelet lysate, SPA assay). Type of experiment: biochemical. The following applies: 0.5 μM cGMP, read-out: PDE5 Inhibitory values measured as -logIC50 (converted). The procedure:
Method for Measuring Inhibition of PDE5 Activity
As a source for human PDE5, platelets were used. For that purpose, 150 ml fresh blood from human donors anticoagulated with citrate [final concentration 0.3% (w/v)] was centrifuged at 200 g for 10 min to obtain the so-called platelet-rich-plasma (PRP) as a supernatant. […] After centrifugation (1,400 g, 10 min) the cell pellet was resuspended in 3 ml homogenization buffer (NaCl 140 mM, KCl 3.8 mM, EGTA (ethylene glycol tetraacetic acid) 1 mM, MgCl2 1 mM, Tris-HCl 20 mM, beta-mercaptoethanol 1 mM, pH 8.2) plus protease-inhibitor mix resulting in final concentrations of 0.5 mM Pefablock (Roche), 10 μM Leupeptin, 5 μM Trypsine inhibitor, 2 mM Benzamidin and 10 μM Pepstatin A. The suspension was sonicated and thereafter centrifuged for 15 min at 10,000 g. The resulting supernatant (platelet lysate) was used for enzymatic assays.
PDE5 activities were measured in a 96-well platform using SPA (scintillation proximity assay) yttrium silicate beads (RPNQ1050 from GE Healthcare). In a first step the PDE activity operated hydrolysis of either [^3H] cGMP (substrate) into [^3H] 5′GMP. In a second step substrate and product were distinguished following addition of SPA yttrium silicate beads. Indeed, in the presence of zinc sulphate the linear [^3H] […] Close proximity of bound [^3H] […] The test volume was 100 μl and contained 20 mM Tris buffer (pH 7.4), 0.1 mg of BSA (bovine serum albumin)/ml, 5 mM Mg^2+, 1 μM motapizone (PDE3 Inhibitor), 10 nM PDE2 inhibitor 2-(3,4-dimethoxybenzyl)-7-[(1R,2R)-2-hydroxy-1-(2-phenylethyl)propyl]-5-methylimidazo[5,1-f][1,2,4]triazin-4(3H)-one, 0.5 μM cGMP (cyclic guanosine monophosphate) (including about 50,000 cpm of [3H]cGMP as a tracer) (substrate), 1 μl of the respective compound dilution in dimethylsulfoxide (DMSO) and sufficient PDE5-containing platelet lysat (10,000×g supernatant, see above) to ensure that 10-20% of the cGMP was converted under the said experimental conditions. […] After a preincubation of 5 min at 37° C., the reaction was commenced by adding the substrate (cGMP) and the assay was incubated for a further 15 min. The reaction was terminated by adding SPA beads (50 μl). In agreement with the manufacturer's instructions, the SPA beads had previously been resuspended in water, but were then diluted 1:3 (v/v) in water. This diluted solution also contained 3 mM 8-methoxymethyl-3-isobutyl-1-methylxanthine (IBMX) to ensure a complete block of PDE activity. Once the beads were sedimented (>30 min), the MTP's were analyzed in commercially available luminescence detection devices. The corresponding IC50 values of the compounds for inhibition of PDE activity were determined from the concentration-effect curves by means of non-linear regression.
(§1) The numbers of the compounds correspond to the numbers of the examples.

Another experiment deals with T2, PDE4B1 (Homo sapiens, UniProt Q07343).
T2 construct: made in house; host or cells: SF21 insect cells (baculovirus; virus made in SF9 cells, pCR-Bac vector)
Description: Inhibition of PDE4 activity (PDE4B1, SPA assay). Type of experiment: biochemical. The following applies: recombinant PDE4B1, 0.5 μM cAMP; read-out: PDE4B1 Inhibitory values measured as -logIC50 (converted). The procedure: Method for Measuring Inhibition of PDE4 Activity
The PDE4B1 (GB no. L20966) was a gift of Prof. M. Conti (Stanford University, USA). It was amplified from the original plasmid (pCMV5) via PCR with primers Rb18 (5′-[…]-3′) and Rb10 (5′-[…]-3′) and cloned into the pCR-Bac vector (Invitrogen, Groningen, NL).
The recombinant baculovirus was prepared by means of homologous recombination in SF9 insect cells. The expression plasmids were cotransfected with Baculo-Gold DNA (Pharmingen, Hamburg) using a standard protocol (Pharmingen, Hamburg). Wt virus-free recombinant virus supernatants were selected using plaque assay methods. After that, high-titre virus supernatants were prepared by amplifying 3 times. PDE4B1 was expressed in SF21 cells by infecting 2×10^6 cells/ml with an MOI (multiplicity of infection) between 1 and 10 in the serum-free SF900 medium (GIBCO Life Technologies, Karlsruhe, Germany) The cells were cultured at 28° C. for 48-72 hours, after which they were pelleted for 5-10 min at 1000×g and 4° C.
The SF21 insect cells were resuspended, at a concentration of approx. 10^7 cells/ml, in ice-cold (4° C.) homogenization buffer (20 mM Tris, pH 8.2, containing the following additions: 140 mM NaCl, 3.8 mM KCl, 1 mM EGTA, 1 mM MgCl2, 10 mM β-mercaptoethanol, 2 mM benzamidine, 0.4 mM Pefablock, 10 μM leupeptin, 10 μM pepstatin A, 5 μM trypsin inhibitor) and disrupted by ultrasonication. The homogenate was then centrifuged for 10 min at 1000×g and the supernatant was stored at −80° C. until subsequent use (see below). The protein content was determined by the Bradford method (BioRad, Munich) using BSA (Bovine serum albumin) as the standard.
PDE4B1 activities were measured in a 96-well platform using SPA (scintillation proximity assay) yttrium silicate beads (RPNQ1050 from GE Healthcare). In a first step the PDE activity operated hydrolysis of either [^3H] cAMP (substrate) into […]. In a second step substrate and product were distinguished following addition of SPA yttrium silicate beads. […] Close proximity of bound [^3H] […] The test volume was 100 μl and finally contained 20 mM Tris buffer (pH 7.4), 0.1 mg/ml of BSA, 5 mM Mg^2+, 0.5 μM cAMP (including about 50,000 cpm of [3H]cAMP) as substrate, 1 μl of the respective substance dilution in DMSO and sufficient recombinant PDE (1000×g supernatant, see above) to ensure that 10-20% of the cAMP was converted under the said experimental conditions. […] After a preincubation of 5 min at 37° C., the reaction was commenced by adding the substrate (cAMP) and the assays were incubated for a further 15 min. Reactions were terminated by adding SPA beads (50 μl). In agreement with the manufacturer's instructions, the SPA beads had previously been resuspended in water, but were then diluted 1:3 (v/v) in water. This diluted solution further contained 3 mM IBMX (isobutylmethylxanthine) to ensure a complete block of PDE activity. Once the beads were sedimented (>30 min), the MTP's (micro titerplate) were analyzed in commercially available […]. The corresponding IC50 values of the compounds for inhibition of PDE4B1 activity were determined from the concentration-effect curves by means of non-linear regression.
as §1

SMILES strings stand for the structures.

T2 sequence (Q07343 whole entry): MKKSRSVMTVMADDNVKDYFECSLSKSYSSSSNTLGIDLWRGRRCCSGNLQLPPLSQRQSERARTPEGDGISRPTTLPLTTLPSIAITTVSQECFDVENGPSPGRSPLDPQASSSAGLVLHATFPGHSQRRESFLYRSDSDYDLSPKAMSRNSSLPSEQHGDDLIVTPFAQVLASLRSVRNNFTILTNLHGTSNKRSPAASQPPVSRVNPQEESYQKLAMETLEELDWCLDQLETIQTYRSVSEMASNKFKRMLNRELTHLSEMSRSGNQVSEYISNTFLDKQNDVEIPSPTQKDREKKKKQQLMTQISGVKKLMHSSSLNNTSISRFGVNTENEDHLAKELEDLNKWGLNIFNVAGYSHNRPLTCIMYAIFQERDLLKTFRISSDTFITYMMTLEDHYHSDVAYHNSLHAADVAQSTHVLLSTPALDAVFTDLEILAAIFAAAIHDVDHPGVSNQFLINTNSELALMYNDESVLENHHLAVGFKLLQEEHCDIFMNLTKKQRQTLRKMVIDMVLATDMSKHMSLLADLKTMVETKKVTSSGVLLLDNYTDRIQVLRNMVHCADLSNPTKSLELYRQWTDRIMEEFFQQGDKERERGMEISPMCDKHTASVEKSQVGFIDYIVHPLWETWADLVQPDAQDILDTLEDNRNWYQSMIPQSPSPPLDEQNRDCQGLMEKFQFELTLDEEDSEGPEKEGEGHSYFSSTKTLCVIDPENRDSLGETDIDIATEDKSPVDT

In the case of `COc1ccc(C2=NN(C3CCN(C(=O)[C@@H](Cc4ccc(C#N)cc4)NC(=O)c4c(C)[nH]c5c(-c6c(OCC7CC7)ccc7c6OCO7)ncnc45)CC3)C(=O)[C@@H]3CCCC[C@H]23)cc1OC` [Example 14, N-[(2R)-3-(4-cyanophenyl)-1-{4-[(4aS,8aR)-4-(3,4-dimethoxyphenyl)-1-oxo-4a,5,6,7,8,8a-hexahydrophthalazin-2(1H)-yl]piperidin-1-yl}-1-oxopropan-2-yl]-4-[5-(cyclopropylmethoxy)-1,3-benzodioxol-4-yl]-6-methyl-5H-pyrrolo[3,2-d]pyrimidine-7-carboxamide], the IC50 on human PDE5 was over 10 nM; at PDE4B1 it was 1 to 10 nM.

Turning to `COc1ccc(C2=NN(C3CCN(C(=O)[C@@H](Cc4ccc(C)cc4)NC(=O)c4c(C)[nH]c5c(-c6c(OCC7CC7)ccc7c6OCO7)ncnc45)CC3)C(=O)[C@@H]3CCCC[C@H]23)cc1OC` [Example 15, 4-[5-(cyclopropylmethoxy)-1,3-benzodioxol-4-yl]-N-[(2R)-1-{4-[(4aS,8aR)-4-(3,4-dimethoxyphenyl)-1-oxo-4a,5,6,7,8,8a-hexahydrophthalazin-2(1H)-yl]piperidin-1-yl}-3-(4-methylphenyl)-1-oxopropan-2-yl]-6-methyl-5H-pyrrolo[3,2-d]pyrimidine-7-carboxamide], the figures for the IC50 at human PDE5 and on PDE4B1 were 1 to 10 nM and under 1 nM, respectively.

For `COc1ccc(C2=NN(C3CCN(C(=O)[C@@H](Cc4ccc(C#N)cc4)NC(=O)c4c[nH]c5c(-c6c(OCC7CC7)ccc7c6OCO7)ncnc45)CC3)C(=O)[C@@H]3CCCC[C@H]23)cc1OC` [Example 16, N-[(2R)-3-(4-cyanophenyl)-1-{4-[(4aS,8aR)-4-(3,4-dimethoxyphenyl)-1-oxo-4a,5,6,7,8,8a-hexahydrophthalazin-2(1H)-yl]piperidin-1-yl}-1-oxopropan-2-yl]-4-[5-(cyclopropylmethoxy)-1,3-benzodioxol-4-yl]-5H-pyrrolo[3,2-d]pyrimidine-7-carboxamide], the IC50 at human PDE5 and at PDE4B1 was 1 to 10 nM in each case.

In the case of `COc1ccc(C2=NN(C3CCN(C(=O)[C@@H](Cc4cccc(C)c4)NC(=O)c4c(C)[nH]c5c(-c6c(OCC7CC7)ccc7c6OCO7)ncnc45)CC3)C(=O)[C@@H]3CCCC[C@H]23)cc1OC` [Example 17, 4-[5-(cyclopropylmethoxy)-1,3-benzodioxol-4-yl]-N-[(2R)-1-{4-[(4aS,8aR)-4-(3,4-dimethoxyphenyl)-1-oxo-4a,5,6,7,8,8a-hexahydrophthalazin-2(1H)-yl]piperidin-1-yl}-3-(3-methylphenyl)-1-oxopropan-2-yl]-6-methyl-5H-pyrrolo[3,2-d]pyrimidine-7-carboxamide], the IC50 at human PDE5 and at PDE4B1 was under 1 nM throughout.

Consider `COc1ccc(C2=NN(C3CCN(C(=O)[C@@H](Cc4ccc(F)c(F)c4)NC(=O)c4c(C)[nH]c5c(-c6c(OCC7CC7)ccc7c6OCO7)ncnc45)CC3)C(=O)[C@@H]3CCCC[C@H]23)cc1OC` [Example 18, 4-[5-(cyclopropylmethoxy)-1,3-benzodioxol-4-yl]-N-[(2R)-3-(3,4-difluorophenyl)-1-{4-[(4aS,8aR)-4-(3,4-dimethoxyphenyl)-1-oxo-4a,5,6,7,8,8a-hexahydrophthalazin-2(1H)-yl]piperidin-1-yl}-1-oxopropan-2-yl]-6-methyl-5H-pyrrolo[3,2-d]pyrimidine-7-carboxamide], for which the results for the IC50 at human PDE5 and on PDE4B1 were 1 to 10 nM and under 1 nM, respectively.

As for `COc1ccc(C2=NN(C3CCN(C(=O)[C@@H](Cc4ccc(F)c(F)c4)NC(=O)c4c[nH]c5c(-c6c(OCC7CC7)ccc7c6OCO7)ncnc45)CC3)C(=O)[C@@H]3CCCC[C@H]23)cc1OC` [Example 19, 4-[5-(cyclopropylmethoxy)-1,3-benzodioxol-4-yl]-N-[(2R)-3-(3,4-difluorophenyl)-1-{4-[(4aS,8aR)-4-(3,4-dimethoxyphenyl)-1-oxo-4a,5,6,7,8,8a-hexahydrophthalazin-2(1H)-yl]piperidin-1-yl}-1-oxopropan-2-yl]-5H-pyrrolo[3,2-d]pyrimidine-7-carboxamide], the IC50 on human PDE5 and on PDE4B1 was 1 to 10 nM in each case.
